Experiments:
[1] = biological target: T1, rat B1R (bradykinin receptor 1) (Rattus norvegicus, UniProt P97583); assay: FLIPR Ca2+ assay (Fluo-4) on CHO K1 cells stably transfected with the B1R gene of the rat (rB1R cells): % inhibition at 10 μM / IC50, agonist Des-Arg9-bradykinin; assay type: cell-based; settings: CHO-K1, rat B1R
T1 construct: expressed in transfected cells; host or cells: CHO K1 cells
T1 sequence (P97583 1-337): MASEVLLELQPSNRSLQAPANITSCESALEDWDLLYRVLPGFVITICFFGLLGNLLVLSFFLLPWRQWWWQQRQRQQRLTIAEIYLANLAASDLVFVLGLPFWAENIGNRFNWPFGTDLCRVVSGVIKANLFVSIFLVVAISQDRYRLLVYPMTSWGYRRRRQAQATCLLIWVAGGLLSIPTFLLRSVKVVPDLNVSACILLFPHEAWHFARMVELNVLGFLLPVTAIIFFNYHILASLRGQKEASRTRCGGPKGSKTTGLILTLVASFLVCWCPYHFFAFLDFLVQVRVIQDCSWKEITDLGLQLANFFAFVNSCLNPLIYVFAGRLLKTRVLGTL
Summary of the method: (§1)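 Stable CHO K1 lines, Fluo-4 dye, probenecid-containing buffer. Cpd 10 μM or dose range, 10–20 min, then EC80 agonist (h: Lys-Des-Arg9-BK; r: Des-Arg9-BK). Readout peak FC; % inhibition vs max; IC50 from n=2–3, N≥2.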

[2] = biological target: T2, human B1R (bradykinin receptor 1) (Homo sapiens, UniProt P46663); assay: FLIPR Ca2+ assay (Fluo-4) on CHO K1 cells stably transfected with the human B1R gene (hB1R cells): % inhibition at 10 μM / IC50, agonist Lys-Des-Arg9-bradykinin; assay type: cell-based; settings: CHO-K1, human B1R
T2 construct: expressed in transfected cells; host or cells: CHO K1 cells
T2 sequence (P46663 1-353): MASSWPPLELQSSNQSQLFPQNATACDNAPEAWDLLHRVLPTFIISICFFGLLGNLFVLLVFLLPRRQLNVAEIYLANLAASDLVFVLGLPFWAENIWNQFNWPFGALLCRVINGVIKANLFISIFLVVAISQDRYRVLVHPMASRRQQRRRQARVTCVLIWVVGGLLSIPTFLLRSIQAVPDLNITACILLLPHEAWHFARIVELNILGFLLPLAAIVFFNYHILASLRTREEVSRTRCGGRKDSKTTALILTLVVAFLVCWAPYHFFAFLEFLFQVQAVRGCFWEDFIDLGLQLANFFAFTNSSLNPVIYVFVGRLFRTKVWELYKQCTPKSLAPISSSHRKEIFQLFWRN
Summary of the method: as §1

Row | Compound | inhibition at 10 µM [1] [%] | inhibition at 10 µM [2] [%]
1 | CN(C(=O)C(c1ccccc1)c1ccccc1Cl)C1CCc2ccc(C(=O)N3CCC4(CC3)CCN(c3ccncc3)CC4)cc21 (centres unmarked) [Ind_CC-021, 2-(2-chlorophenyl)-N-methyl-2-phenyl-N-[6-(9-pyridin-4-yl-3,9-diazaspiro[5.5]undecane-3-carbonyl)-2,3-dihydro-1H-inden-1-yl]-acetamide] | 96 | 94
2 | O=C(N[C@@H]1CCOc2cc(F)c(C(=O)N3CCC4(CC3)CCN(c3ccncc3)CC4)cc21)c1ccccc1Cl [Example H-92, 2-Chloro-N-[(4R)-7-fluoro-6-(9-pyridin-4-yl-3,9-diazaspiro[5.5]undecane-3-carbonyl)-3,4-dihydro-2H-chromen-4-yl]-benzamide] | 104 | 96
3 | O=C(NC1CCc2ccc(C(=O)N3CCC4(CCN(C(=O)Cc5ccc(Cl)cc5)CC4)C3)cc21)c1ccccc1Cl (centres unmarked) [IND_CC-577, 2-Chloro-N-[6-[8-[2-(4-chlorophenyl)-acetyl]-2,8-diazaspiro[4.5]decane-2-carbonyl]-2,3-dihydro-1H-inden-1-yl]-benzamide] | 96 | 21
4 | O=C(NC1CCc2ccc(C(=O)N3CCC4(CC3)CCN(c3ccncc3)CC4)cc21)c1ccccn1 (centres unmarked) [Ind_CC-002, N-[6-(9-pyridin-4-yl-3,9-diazaspiro[5.5]undecane-3-carbonyl)-2,3-dihydro-1H-inden-1-yl]-pyridine-2-carboxylic acid amide] | 85 | 97
5 | O=C(N[C@@H]1CCc2ccc(C(=O)N3CCC4(CCN(c5ccncc5)CC4)C3)cc21)c1cncnc1 [Example H-84, N-[(1R)-6-(8-Pyridin-4-yl-3,8-diazaspiro[4.5]decane-3-carbonyl)-2,3-dihydro-1H-inden-1-yl]-pyrimidine-5-carboxylic acid amide] | 104 | 100
6 | O=C(N[C@@H]1CCOc2ccc(C(=O)N3CCC4(CC3)CCN(c3ccncc3)CC4)cc21)c1ccccc1Cl [Example H-58, 2-Chloro-N-[(4R)-6-(9-pyridin-4-yl-3,9-diazaspiro[5.5]undecane-3-carbonyl)-3,4-dihydro-2H-chromen-4-yl]-benzamide] | 106 | 99
7 | CN(C)C1(c2ccc(F)cc2)CCC2(CCN(C(=O)c3ccc4c(c3)C(NC(=O)c3sccc3Cl)CC4)CC2)CC1 (centres unmarked) [Ind_CC-105, 3-chloro-N-[6-[9-dimethylamino-9-(4-fluorophenyl)-3-azaspiro[5.5]undecane-3-carbonyl]-2,3-dihydro-1H-inden-1-yl]-thiophene-2-carboxylic acid amide] | 86 | 61
8 | O=C(Cc1ccccc1F)N[C@@H]1CCc2ccc(C(=O)N3CCC4(CCN(c5ccncc5)CC4)C3)cc21 [Example H-152, 2-(2-Fluorophenyl)-N-[(1R)-6-(8-pyridin-4-yl-3,8-diazaspiro[4.5]decane-3-carbonyl)-2,3-dihydro-1H-inden-1-yl]-acetamide] | 101 | 99
9 | O=C(c1ccc2c(c1)C(N(C(=O)c1ccccc1Cl)C1CC1)CC2)N1CCC2(CCN(Cc3ccncc3)CC2)CC1 (centres unmarked) [Ind_CC-116, 2-chloro-N-cyclopropyl-N-[6-[9-(pyridin-4-yl-methyl)-3,9-diazaspiro[5.5]undecane-3-carbonyl]-2,3-dihydro-1H-inden-1-yl]-benzamide] | 77 | 68
10 | CC1(C)CC(NC(=O)Cc2ccccc2Cl)c2cc(C(=O)N3CCC4(CC3)CCN(c3ccncc3)CC4)ccc21 (centres unmarked) [Ind_CC-053, 2-(2-chlorophenyl)-N-[3,3-dimethyl-6-(9-pyridin-4-yl-3,9-diazaspiro[5.5]undecane-3-carbonyl)-1,2-dihydro-inden-1-yl]-acetamide] | 103 | 99

— US8455475B2 (Gruenenthal GmbH, priority 2009, dated 2013)
